Measurements taken from PubChem BioAssay (NCI).
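Step 1: Grow cells in 96-well plates. Step 2: Expose to compound for 48 hours at 5 concentrations. Step 3: Interpolate endpoints linearly; if unreached, use highest concentration. Abbreviation: GI50, concentration required for 50% inhibition of growth. The concentration for full growth arrest is given as TGI.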

Columns and labels:
Assay in all cases: NCI tumour cell line growth inhibition, 48 h
786-0 renal = test system: 786-0 renal
A498 renal = test system: A498 renal
A549 NSCLC = test system: A549 NSCLC
ACHN renal = test system: ACHN renal
BT-549 breast = test system: BT-549 breast
CAKI-1 renal = test system: CAKI-1 renal
CCRF-CEM leukemia = test system: CCRF-CEM leukemia
COLO 205 colon = test system: COLO 205 colon
DU-145 prostate = test system: DU-145 prostate
EKVX NSCLC = test system: EKVX NSCLC
HCC-2998 colon = test system: HCC-2998 colon
HCT-116 colon = test system: HCT-116 colon
HCT-15 colon = test system: HCT-15 colon
HL-60(TB) leukemia = test system: HL-60(TB) leukemia
HOP-62 NSCLC = test system: HOP-62 NSCLC
HOP-92 NSCLC = test system: HOP-92 NSCLC
HS 578T breast = test system: HS 578T breast
HT29 colon = test system: HT29 colon
IGROV1 ovarian = test system: IGROV1 ovarian
K-562 leukemia = test system: K-562 leukemia
KM12 colon = test system: KM12 colon
LOX IMVI melanoma = test system: LOX IMVI melanoma
M14 melanoma = test system: M14 melanoma
MALME-3M melanoma = test system: MALME-3M melanoma
MCF7 breast = test system: MCF7 breast
MDA-MB-231 breast = test system: MDA-MB-231 breast
MDA-MB-435 = test system: MDA-MB-435
MOLT-4 leukemia = test system: MOLT-4 leukemia
NCI-H226 lung = test system: NCI-H226 lung

CCc1c2c(nc3ccc(OC(=O)NCc4ccc(B5OC(C)(C)C(C)(C)O5)cc4)cc13)-c1cc3c(c(=O)n1C2)COC(=O)[C@]3(O)CC was tested, and the GI50 (786-0 renal) was 13.6 nM, the TGI (786-0 renal) was 346 nM and the GI50 (A498 renal) was 14.1 nM. For the same compound, the TGI (A498 renal) was 175 nM, the GI50 (A549 NSCLC) was 82.5 nM and the TGI (A549 NSCLC) was 8090 nM. The GI50 (ACHN renal) was 20.2 nM, the TGI (ACHN renal) was 1130 nM and the GI50 (BT-549 breast) was 52 nM. It also gave a TGI (BT-549 breast) of 2740 nM, a GI50 (CAKI-1 renal) of 16.2 nM and a TGI (CAKI-1 renal) of 1100 nM. For the same compound, the GI50 (CCRF-CEM leukemia) was under 10 nM, the TGI (CCRF-CEM leukemia) was over 100000 nM and the GI50 (COLO 205 colon) was 73.4 nM. For the same compound, the TGI (COLO 205 colon) was 11000 nM, the GI50 (DU-145 prostate) was 16.8 nM and the TGI (DU-145 prostate) was over 100000 nM. It also gave a GI50 (EKVX NSCLC) of 758 nM, a TGI (EKVX NSCLC) of over 81900 nM and a GI50 (HCC-2998 colon) of 250 nM. It also gave a TGI (HCC-2998 colon) of 3560 nM, a GI50 (HCT-116 colon) of under 10.8 nM and a TGI (HCT-116 colon) of over 100000 nM. For the same compound, the GI50 (HCT-15 colon) was 277 nM, the TGI (HCT-15 colon) was over 100000 nM and the GI50 (HL-60(TB) leukemia) was under 19.1 nM. For the same compound, the GI50 (HOP-62 NSCLC) was under 10 nM, the TGI (HOP-62 NSCLC) was 2920 nM and the GI50 (HOP-92 NSCLC) was 42 nM. It also gave a TGI (HOP-92 NSCLC) of 2470 nM, a GI50 (HS 578T breast) of 1140 nM and a TGI (HS 578T breast) of 15900 nM. For the same compound, the GI50 (HT29 colon) was 120 nM, the TGI (HT29 colon) was over 21200 nM and the GI50 (IGROV1 ovarian) was 214 nM. For the same compound, the TGI (IGROV1 ovarian) was over 42700 nM, the GI50 (K-562 leukemia) was 34.3 nM and the TGI (K-562 leukemia) was over 100000 nM. The GI50 (KM12 colon) was 167 nM, the TGI (KM12 colon) was over 30100 nM and the GI50 (LOX IMVI melanoma) was under 10 nM. The TGI (LOX IMVI melanoma) was 167 nM, the GI50 (M14 melanoma) was under 10 nM and the TGI (M14 melanoma) was 104 nM. For the same compound, the GI50 (MALME-3M melanoma) was 74.1 nM, the TGI (MALME-3M melanoma) was 1310 nM and the GI50 (MCF7 breast) was under 10 nM. The TGI (MCF7 breast) was over 100000 nM, the GI50 (MDA-MB-231 breast) was 1590 nM and the TGI (MDA-MB-231 breast) was over 84100 nM. For the same compound, the GI50 (MDA-MB-435) was 107 nM, the TGI (MDA-MB-435) was 2700 nM and the GI50 (MOLT-4 leukemia) was under 10 nM. For the same compound, the TGI (MOLT-4 leukemia) was over 100000 nM, the GI50 (NCI-H226 lung) was 21.6 nM and the TGI (NCI-H226 lung) was 635 nM.
